Reference: ChEMBL document CHEMBL5537196, “Discovery of KIN-3248, An Irreversible, Next Generation FGFR Inhibitor for the Treatment of Advanced Tumors Harboring FGFR2 and/or FGFR3 Gene Alterations” (J Med Chem, 2024)
≈ marks a conversion by molar mass, not a printed value. Each block holds one compound with its values, some of them ahead of it.

Assays:
SNU-16 [1] = assay: Antiproliferative activity against human SNU-16 cells assessed as inhibition of cell growth incubated for 5 days by Cell-titer glo assay; conditions: SNU-16, 120 h
CC-LP-1 [2] = assay: Antiproliferative activity against human CC-LP-1 cells assessed as inhibition of cell growth incubated for 3 days by Cell-titer glo assay; conditions: CC-LP-1, 72 h
CC-LP-1 [3] = assay: Antiproliferative activity against human CC-LP-1 cells expressing FGFR2 V565F mutant assessed as inhibition of cell growth incubated for 3 days by Cell-titer glo assay; conditions: CC-LP-1, 72 h
CC-LP-1 [4] = assay: Antiproliferative activity against human CC-LP-1 cells expressing FGFR2 N550H mutant assessed as inhibition of cell growth incubated for 3 days by Cell-titer glo assay; assay type: functional, cell-based; conditions: CC-LP-1, 72 h
CC-LP-1 [5] = assay: Antiproliferative activity against human CC-LP-1 cells expressing FGFR2 N550K mutant assessed as inhibition of cell growth incubated for 3 days by Cell-titer glo assay; conditions: CC-LP-1, 72 h
[6] = Antiproliferative activity against human ICC13-7 cells assessed as inhibition of cell growth incubated for 3 days by Cell-titer glo assay; conditions: ICC13-7, 72 h
[7] = Antiproliferative activity against human ICC13-7 cells expressing FGFR2 V565F mutant assessed as inhibition of cell growth incubated for 10 days by Cell-titer glo assay; conditions: ICC13-7, 240 h
[8] = Antiproliferative activity against human ICC13-7 cells expressing FGFR2 N550K mutant assessed as inhibition of cell growth incubated for 10 days by Cell-titer glo assay; conditions: ICC13-7, 240 h
RT-112 [9] = assay: Antiproliferative activity against human RT-112 cells assessed as inhibition of cell growth incubated for 5 days by Cell-titer glo assay; conditions: RT-112, 120 h
RT-112 [10] = assay: Antiproliferative activity against human RT-112 cells expressing FGFR3 assessed as inhibition of cell growth incubated for 5 days by Cell-titer glo assay; conditions: RT-112, 120 h
RT-112 [11] = assay: Antiproliferative activity against human RT-112 cells expressing FGFR3 V555M mutant assessed as inhibition of cell growth incubated for 5 days by Cell-titer glo assay; conditions: RT-112, 120 h
RT-112 [12] = assay: Antiproliferative activity against human RT-112 cells expressing FGFR3 N540K mutant assessed as inhibition of cell growth incubated for 5 days by Cell-titer glo assay; conditions: RT-112, 120 h
RT-112 [13] = assay: Antiproliferative activity against human RT-112 cells expressing FGFR3 K650M mutant assessed as inhibition of cell growth incubated for 5 days by Cell-titer glo assay; conditions: RT-112, 120 h
[14] = Antitumor activity against patient derived STO357 PDX cells xenografted in mouse assessed as tumor growth inhibition at 6 mg/kg,po administrated once daily for 3 weeks relative to control; conditions: Homo sapiens, 504 h, read-out: TGI
[15] = Antitumor activity against patient derived STO357 PDX cells xenografted in mouse assessed as tumor growth inhibition at 1 mg/kg,po administrated once daily for 3 weeks relative to control; assay type: functional; conditions: Homo sapiens, 504 h, read-out: TGI
[16] = Half life in Sprague-Dawley rat at 5 mg/kg,iv administrated at 0.25 to 24 hrs by LC-MS/MS analysis; assay type: ADME, organism-based; conditions: in vivo, time 0.25-24 hrs
[17] = Total clearance in Sprague-Dawley rat at 5 mg/kg,iv administrated at 0.25 to 24 hrs by LC-MS/MS analysis; assay type: ADME, organism-based; conditions: in vivo, time 0.25-24 hrs
[18] = Cmax in Sprague-Dawley rat at 15 mg/kg,po administrated at 0.25 to 24 hrs by LC-MS/MS analysis; assay type: ADME, organism-based; conditions: in vivo, time 0.25-24 hrs
[19] = AUC (0 to 24 hrs) in Sprague-Dawley rat at 15 mg/kg,po administrated at 0.25 to 24 hrs by LC-MS/MS analysis; assay type: ADME, organism-based; conditions: in vivo, time 0.25-24 hrs
[20] = Oral bioavailability in Sprague-Dawley rat at 15 mg/kg administrated at 0.25 to 24 hrs by LC-MS/MS analysis; assay type: ADME, organism-based; conditions: in vivo, time 0.25-24 hrs
[21] = Half life in Beagle dog at 5 mg/kg,iv administrated at 0.25 to 24 hrs by LC-MS/MS analysis; assay type: ADME, organism-based, Canis lupus familiaris; conditions: in vivo, time 0.25-24 hrs
[22] = Total clearance in Beagle dog at 5 mg/kg,iv administrated at 0.25 to 24 hrs by LC-MS/MS analysis; assay type: ADME, organism-based, Canis lupus familiaris; conditions: in vivo, time 0.25-24 hrs
[23] = Cmax in Beagle dog at 15 mg/kg,po administrated at 0.25 to 24 hrs by LC-MS/MS analysis; assay type: ADME, organism-based, Canis lupus familiaris; conditions: in vivo, time 0.25-24 hrs
[24] = AUC (0 to 24 hrs) in Beagle dog at 15 mg/kg,po administrated at 0.25 to 24 hrs by LC-MS/MS analysis; assay type: ADME, organism-based, Canis lupus familiaris; conditions: in vivo, time 0.25-24 hrs
[25] = Oral bioavailability in Beagle dog at 15 mg/kg administrated at 0.25 to 24 hrs by LC-MS/MS analysis; assay type: ADME, organism-based, Canis lupus familiaris; conditions: in vivo, time 0.25-24 hrs
[26] = Intrinsic clearance in human liver microsomes; assay type: ADME, Microsome; conditions: read-out: CLH
[27] = Intrinsic clearance in human hepatocyte measured per 10^6 cells; assay type: ADME, cell-based; conditions: hepatocytes, read-out: CLH
[28] = Lipophilicity, logP of compound; assay type: physicochemical; conditions: octanol/water
[29] = Dissociation constant, pKa of the compound; assay type: physicochemical
[30] = Aqueous solubility of the compound at pH 7.4; assay type: physicochemical
[31] = Aqueous solubility of the compound at pH 2; assay type: physicochemical
[32] = Solubility of compound in SGF; assay type: ADME
[33] = Solubility of compound in FaSSIF; assay type: ADME
[34] = Solubility of compound in FeSSIF; assay type: ADME
SNU-16 [35] = assay: Antitumor activity against human SNU-16 cells xenografted in mouse assessed as inhibition of tumor growth at po administrated once daily for 3 weeks; assay type: functional, organism-based
SNU-16 [36] = assay: Antitumor activity against human SNU-16 cells xenografted in mouse assessed as tumor growth inhibition at 2 mg/kg,po administrated once daily for 3 weeks relative to control; assay type: functional; conditions: SNU-16, 504 h, read-out: TGI
SNU-16 [37] = assay: Antitumor activity against human SNU-16 cells xenografted in mouse assessed as tumor growth inhibition at 5 mg/kg,po administrated once daily for 3 weeks relative to control; assay type: functional; conditions: SNU-16, 504 h, read-out: TGI
SNU-16 [38] = assay: Antitumor activity against human SNU-16 cells xenografted in mouse assessed as tumor growth inhibition at 15 mg/kg,po administrated once daily for 3 weeks relative to control; assay type: functional; conditions: SNU-16, 504 h, read-out: TGI
[39] = Toxicity in mouse xenografted with human SNU-16 cells assessed as body weight change at 2 to 15 mg/kg,po administrated once daily for 3 weeks; assay type: organism-based; conditions: in vivo, 504 h, dose 2-15 mg/kg
RT-112 [40] = assay: Antitumor activity against human RT-112 cells xenografted in mouse assessed as inhibition of tumor growth at po administrated once daily for 3 weeks; assay type: functional, organism-based
RT-112 [41] = assay: Antitumor activity against human RT-112 cells xenografted in mouse assessed as tumor growth inhibition at 2 mg/kg,po administrated once daily for 3 weeks relative to control; assay type: functional; conditions: RT-112, 504 h, read-out: TGI
RT-112 [42] = assay: Antitumor activity against human RT-112 cells xenografted in mouse assessed as tumor growth inhibition at 5 mg/kg,po administrated once daily for 3 weeks relative to control; assay type: functional; conditions: RT-112, 504 h, read-out: TGI
RT-112 [43] = assay: Antitumor activity against human RT-112 cells xenografted in mouse assessed as tumor growth inhibition at 15 mg/kg,po administrated once daily for 3 weeks relative to control; assay type: functional; conditions: RT-112, 504 h, read-out: TGI
[44] = Toxicity in mouse xenografted with human RT-112 cells assessed as body weight loss at 15 mg/kg,po administrated once daily for 3 weeks; assay type: organism-based; conditions: in vivo, 504 h
[45] = Antitumor activity against patient derived STO357 PDX cells xenografted in mouse assessed as tumor growth inhibition at 5 mg/kg,po administrated once daily for 3 weeks relative to control; assay type: functional; conditions: Homo sapiens, 504 h, read-out: TGI
[46] = Toxicity in mouse xenografted with patient derived STO357 PDX cells assessed as body weight change at 5 to 15 mg/kg,po administrated once daily for 3 weeks; assay type: organism-based; conditions: in vivo, 504 h, dose 5-15 mg/kg
[47] = Antitumor activity against patient derived STO357 PDX cells xenografted in mouse assessed as downregulation of ERK phosphorylation at 5 mg/kg,po administration and measured after 7 hrs by MSD assay; assay type: functional, Homo sapiens
[48] = Antitumor activity against patient derived STO357 PDX cells xenografted in mouse assessed as downregulation of ERK phosphorylation at 15 mg/kg,po administration and measured after 7 hrs by MSD assay; assay type: functional, Homo sapiens
[49] = Unbound drug concentration in mouse plasma xenografted with patient derived STO357 PDX cells at 15 mg/kg,po administration and measured after 15 mins by LC-MS/MS analysis; assay type: ADME, organism-based; conditions: in vivo, 0.25 h
[50] = Unbound drug concentration in mouse plasma xenografted with patient derived STO357 PDX cells at 15 mg/kg,po administration and measured after 1 hr by LC-MS/MS analysis; assay type: ADME, organism-based; conditions: in vivo
[51] = Unbound drug concentration in mouse plasma xenografted with patient derived STO357 PDX cells at 15 mg/kg,po administration and measured after 12 hr by LC-MS/MS analysis; assay type: ADME, organism-based; conditions: in vivo

Structure (SMILES): C=CC(=O)N1CC[C@H](n2nc(C#Cc3cc(OC)cc(OC)c3)c3c(N)ncnc32)C1 [FUTIBATINIB]
IC50 (SNU-16 [1]): 4.7 nM
IC50 (CC-LP-1 [2]): 1.3 nM
IC50 (CC-LP-1 [3]): 105 nM
IC50 (CC-LP-1 [4]): 1.4 nM
IC50 (CC-LP-1 [5]): 5.5 nM
IC50 [6]: 1.8 nM
IC50 [7]: 143 nM
IC50 [8]: 13.8 nM
IC50 (RT-112 [9]): 6.7 nM
IC50 (RT-112 [10]): 19.6 nM
IC50 (RT-112 [11]): 390 nM
IC50 (RT-112 [12]): 73.4 nM
IC50 (RT-112 [13]): 74.3 nM
inhibition in vivo at 6 mg/kg [14]: 48%

IC50 (SNU-16 [1]): 12.4 nM
Structure (SMILES): CCN1CCN(c2ccc(Nc3cc(N(C)C(=O)Nc4c(Cl)c(OC)cc(OC)c4Cl)ncn3)cc2)CC1 [INFIGRATINIB]
IC50 (CC-LP-1 [2]): 7.3 nM
IC50 (CC-LP-1 [3]): > 2280 nM
IC50 (CC-LP-1 [4]): 28.8 nM
IC50 (CC-LP-1 [5]): 432 nM
IC50 [6]: 7.6 nM
IC50 [7]: > 1890 nM
IC50 [8]: 352 nM
IC50 (RT-112 [9]): 6.2 nM
IC50 (RT-112 [10]): 10 nM
IC50 (RT-112 [11]): 352 nM
IC50 (RT-112 [12]): 777 nM
IC50 (RT-112 [13]): 218 nM

IC50 (SNU-16 [1]): 3.9 nM
Structure (SMILES): CCN1C(=O)N(c2c(F)c(OC)cc(OC)c2F)Cc2cnc3[nH]c(CN4CCOCC4)cc3c21 [PEMIGATINIB]
IC50 (CC-LP-1 [2]): 3.6 nM
IC50 (CC-LP-1 [3]): 1630 nM
IC50 (CC-LP-1 [4]): 48.7 nM
IC50 (CC-LP-1 [5]): 493 nM
IC50 [6]: 2.6 nM
IC50 [7]: > 2350 nM
IC50 [8]: 416 nM
IC50 (RT-112 [9]): 3.3 nM
IC50 (RT-112 [10]): 6 nM
IC50 (RT-112 [11]): > 1150 nM
IC50 (RT-112 [12]): 1880 nM
IC50 (RT-112 [13]): 174 nM
inhibition in vivo at 1 mg/kg [15]: 57%

half-life [16]: 5.46 h
clearance [17]: 16.1 mL/min/kg
Cmax [18]: 1490 ng/mL
AUC(0-t) [19]: 3740 ng·h/mL
bioavailability [20]: 24.3%
half-life [21]: 6.89 h
clearance [22]: 23.9 mL/min/kg
Cmax [23]: 815 ng/mL
AUC(0-t) [24]: 2100 ng·h/mL
bioavailability [25]: 17.5%
microsomal CLint [26]: 59.6 µL/min/mg
hepatocyte CLint [27]: 7.2 µL/min/1e6 cells
logP [28]: 2.5
pKa [29]: 2.22
solubility [30]: 69.7 µM (≈ 36.5 µg/mL)
solubility [31]: 301 µM (≈ 158 µg/mL)
solubility [32]: 800 µg/mL (≈ 1530 µM)
solubility [33]: 400 µg/mL (≈ 764 µM)
solubility [34]: 300 µg/mL (≈ 573 µM)
Cp(f) [49]: ~ 100 ng/ml
Cp(f) [50]: ~ 50 ng/ml
Drug uptake(free) [51]: Not Active
Structure (SMILES): C=CC(=O)N1C[C@@H](n2nc(C#Cc3c(F)cc4c(ncn4C4CC4)c3F)c(C(N)=O)c2NC)C[C@@H]1COC [RESIGRATINIB]
Activity (SNU-16 [35]): Dose-Dependent Effect
inhibition in vivo at 2 mg/kg (SNU-16 [36]): 69%
inhibition in vivo at 5 mg/kg (SNU-16 [37]): 81%
inhibition in vivo at 15 mg/kg (SNU-16 [38]): 93%
Activity [39]: Non-Toxic
Activity (RT-112 [40]): Dose-Dependent Effect
inhibition in vivo at 2 mg/kg (RT-112 [41]): 80%
inhibition in vivo at 5 mg/kg (RT-112 [42]): 91%
inhibition in vivo at 15 mg/kg (RT-112 [43]): 99%
Activity [44]: 5.4%
inhibition in vivo at 5 mg/kg [45]: 90%
Activity [46]: Non-Toxic
Activity [47]: 25%
Activity [48]: 75%
